Measurements published in US20210353579A1, “HIGH PENETRATION COMPOSITIONS AND USES THEREOF” (Techfields Pharma Co., Ltd., priority 2006, published 2021).
In brackets after ≈: the same amount, converted by molar mass.

Assays:
[1] = Plasma levels after transdermal administration to hairless mice; format: in vivo; settings: for t, time to peak plasma level after parent compound: parent compound administered (time when taken orally); for Peak plasma concentration after parent compound: parent compound administered, hairless mice
Method: Tested compounds (20% solution or suspension in 1 mL isopropanol) are administered transdermally to the skin of intact hairless mice. The plasma levels of the parent compounds are determined by HPLC.

mice = assay: Analgesic activity, acetic acid writhing; format: in vivo; settings: 30 min before acetic acid; for inhibition at 50 mg/kg / inhibition at 100 mg/kg: Mus musculus, po, read-out: % (rate of writhing inhibition)
Method: The prodrug compounds are administered either transdermally or orally. The parent compounds are administered orally. The number of writhing that occurred when mice are administered the acetic acid solution are counted, and the rate of inhibition based on the control group which was not pretreated with any test compounds is calculated. […] The A group is the control group.

rats = assay: Antipyretic activity, E. coli suspension as pyrogen; format: in vivo; settings: in °C (unit assumed)
Method: Rats are administered with sterilized E. coli suspension as a pyrogen. Each group of rats are administered with a prodrug compounds or parent compounds at a dosage specified below. The prodrug compounds are administered either orally or transdermally. The parent compounds are administered orally.

human skin tissue = settings: human, 20 %, pH 7.4
in vivo = settings: rat
Method: The acute toxicity of the prodrug compounds and parent compounds are measured by LD50 of rat.

[2] = Solubility in water / aqueous solubility of HPPs and parent drugs; settings: water
[3] = test system: rats (SLAC/GK, type 2 diabetes); assay: Blood glucose in type 2 diabetes rats, transdermal; format: in vivo, rat; settings: diabetic rats (SLAC/GK)
Text: (§1) HPPs lower blood glucose level in rat models (SLAC/GK, type 2 diabetes, n=7). 50% acetone solution of diethylaminoethyl acetylsalicylate.acetylsalicylic acid salt (P-1, in acetone); 4-acetamidophenyl salicylyldimethylaminobutyrate.HCl (P-6), diethylaminoethyl 5-(2,4-difluorophenyl) acetylsalicylate.5-(2,4-difluorophenyl).acetylsalicylic acid salt (P-8), diethylaminoethyl salicylsalicylate.AcOH (P-9), diethylaminoethyl salicylate.AcOH (P-10), diethylaminoethyl 5-acetamido-acetylsalicylate (P-58), diethylaminoethyl acetylsalicylsalicylate.acetylsalicylsalicylic acid salt (P-59), diethylaminoethyl acetylsalicylsalicylate.acetylsalicylsalicylsalicylic acid salt (P-60) (equal to of 20 mg/kg of NSAIAs) are administered transdermally to the backs (about 1.5 cm^2) of rats (fur was shaved) once per day (at 8 am) for 5 weeks. The blood glucose levels are measured once every 3 days at 3 pm (no fasting) from the second week to the fifth week (Table 24). The blood lipid levels are measured at the end of the fifth week (Table 25).

[4] = test system: rats (SLAC/GK, type 2 diabetes); assay: Blood lipid in type 2 diabetes rats, transdermal; format: in vivo, rat
Text: as §1

[5] = test system: rats (SLAC/GK, type 2 diabetes); assay: Blood glucose in type 2 diabetes rats, oral with food; format: in vivo, rat
Text: (§2) 20% acetone solution of diethylaminoethyl acetylsalicylate.acetylsalicylic acid salt (P-1, in acetone); 4-acetamidophenyl salicylyldimethylaminobutyrate.HCl (P-6), diethylaminoethyl 5-(2,4-difluorophenyl) acetylsalicylate.5-(2,4-difluorophenyl) acetylsalicylic acid salt (P-8), diethylaminoethyl salicylsalicylate.AcOH (P-9), diethylaminoethyl salicylate.AcOH (P-10), diethylaminoethyl 5-acetamido-acetylsalicylate (P-58), diethylaminoethyl acetylsalicylsalicylate. acetylsalicylsalicylic acid salt (P-59), diethylaminoethyl acetylsalicylsalicylate. acetylsalicylsalicylsalicylic acid salt (P-60) (equal to of 20 mg/kg of NSAIAs) were mixed with food and were orally administered to the rats (SLAC/GK, type 2 diabetes, n=7) with food every day for 5 weeks. The blood glucose levels were measured once every 3 days at 3 pm (no fasting) from the second week to the fifth week. The blood lipid levels were measured at the end of the fifth week.

[6] = test system: rats (SLAC/GK, type 2 diabetes); assay: Blood lipid in type 2 diabetes rats, oral with food; format: in vivo, rat
Text: as §2

[7] = test system: mice (SLAC:NOD-IDDM, type 1 diabetes); assay: Blood glucose in type 1 diabetes mice, transdermal; format: in vivo, mouse
Text: The pro-drugs in this invention lower blood glucose levels in mouse models (SLAC:NOD-IDDM, type 1 diabetes, n=7). 50% acetone solution of diethylaminoethyl acetylsalicylate.acetylsalicylic acid salt (P-1, in acetone); 4-acetamidophenyl salicylyldimethylaminobutyrate.HCl (P-6), diethylaminoethyl 5-(2,4-difluorophenyl) acetylsalicylate.5-(2,4-difluorophenyl) acetylsalicylic acid salt (P-8), diethylaminoethyl salicylsalicylate.AcOH (P-9), diethylaminoethyl salicylate.AcOH (P-10), diethylaminoethyl 5-acetamido-acetylsalicylate (P-58), diethylaminoethyl acetylsalicylsalicylate. acetylsalicylsalicylic acid salt (P-59), diethylaminoethyl acetylsalicylsalicylate. acetylsalicylsalicylsalicylic acid salt (P-60) (equal to of 30 mg/kg of NSAIAs) were administered transdermally to the backs (about 1.5 cm^2) of mice (fur was shaved) once per day (at 8 am) for 7 weeks. The blood glucose levels were measured once every 3 days at 3 pm (no fasting) from the fourth week to the seventh week.

normal rats [8] = assay: Blood glucose in normal rats, transdermal; format: in vivo, rat
Text: as §1, with “25). […]” for “25).”

normal rats [9] = assay: Blood glucose in normal rats, oral with food; format: in vivo, rat
[10] = baseline, equal to 20 mg/kg of NSAIAs
[11] = end of the fifth week, equal to 20 mg/kg of NSAIAs once per day
[12] = end of the fifth week, equal to 20 mg/kg of NSAIAs every day
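Throughout, for LD50: acute toxicity in rats expressed as LD50, determined for both prodrugs and their parent compounds.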

## CC(=O)Oc1ccccc1C(=O)O [Aspirin, acetylsalicylic acid, reference compound]
[1]
  t, time to peak plasma level after parent compound: ~2 h
  Peak plasma concentration after parent compound: 0.1 mg/L
mice; 50 mg/kg orally
  No. of Writhing: 18.2
  inhibition at 50 mg/kg: 45%
mice; 100 mg/kg orally
  No. of Writhing: 13.2
  inhibition at 100 mg/kg: 60%
rats; 100 mg/kg orally
  body temperature, t = 0 min: 37.22 ± 0.05
  body temperature, t = 90 min: 36.80 ± 0.05
  body temperature, t = 180 min: 36.85 ± 0.05
  body temperature, t = 270 min: 36.81 ± 0.05
rats; 150 mg/kg orally
  body temperature, t = 0 min: 37.30 ± 0.06
  body temperature, t = 90 min: 36.50 ± 0.05
  body temperature, t = 180 min: 36.59 ± 0.05
  body temperature, t = 270 min: 36.55 ± 0.05
Human skin tissue
  In vitro penetration rate (apparent flux), parent compounds: <1 μg/cm^2/h
In vivo
  LD50: 1500 mg/kg
[2]
  solubility: 10 µg/mL (≈ 55.5 µM)

## O=C(O)c1cc(-c2ccc(F)cc2F)ccc1O [Diflunisal, 5-(2,4-difluorophenyl) salicylic acid, reference compound]
[1]
  t, time to peak plasma level after parent compound: 1 to 2 h
  Peak plasma concentration after parent compound: 0.2 mg/L
mice; 50 mg/kg orally
  No. of Writhing: 18.1
  inhibition at 50 mg/kg: 48%
mice; 100 mg/kg orally
  No. of Writhing: 13.2
  inhibition at 100 mg/kg: 62%
rats; 100 mg/kg orally
  body temperature, t = 0 min: 37.25 ± 0.06
  body temperature, t = 90 min: 36.81 ± 0.05
  body temperature, t = 180 min: 36.82 ± 0.08
  body temperature, t = 270 min: 36.78 ± 0.07
rats; 150 mg/kg orally
  body temperature, t = 0 min: 37.35 ± 0.09
  body temperature, t = 90 min: 36.61 ± 0.07
  body temperature, t = 180 min: 36.56 ± 0.06
  body temperature, t = 270 min: 36.57 ± 0.05
Human skin tissue
  In vitro penetration rate (apparent flux), parent compounds: <1 μg/cm^2/h
In vivo
  LD50: 500 mg/kg
[2]
  solubility: 50 µg/mL (≈ 200 µM)

## CC(C(=O)O)c1cccc(Oc2ccccc2)c1 (centres unmarked) [Fenoprofen, 2-(3-phenoxyphenyl) propionic acid, reference compound]
[1]
  t, time to peak plasma level after parent compound: 1 to 2 h
  Peak plasma concentration after parent compound: 1 mg/L
mice; 50 mg/kg orally
  No. of Writhing: 13.2
  inhibition at 50 mg/kg: 62%
rats; 50 mg/kg orally
  body temperature, t = 0 min: 37.22 ± 0.07
  body temperature, t = 90 min: 36.82 ± 0.06
  body temperature, t = 180 min: 36.80 ± 0.05
  body temperature, t = 270 min: 36.77 ± 0.08
Human skin tissue
  In vitro penetration rate (apparent flux), parent compounds: <1 μg/cm^2/h
In vivo
  LD50: 800 mg/kg
[2]
  solubility: 100 µg/mL (≈ 413 µM)

## O=C(O)c1cccnc1Nc1cccc(C(F)(F)F)c1 [Niflumic acid, niflumic acid]
[1]
  t, time to peak plasma level after parent compound: 2 to 4 h
  Peak plasma concentration after parent compound: 0.1 mg/L
Human skin tissue
  In vitro penetration rate (apparent flux), parent compounds: 10 μg/cm^2/h
In vivo
  LD50: 650 mg/kg
[2]
  solubility: < 100 µg/mL

## CC(=O)Nc1ccc(OC(=O)c2ccccc2OC(=O)CCCN(C)C)cc1.Cl [P-6]
[3]; average second to fifth week, no fasting, equal to 20 mg/kg of NSAIAs once per day for 5 weeks
  Blood glucose, Average: 8.5 ± 2 mmol/L
[3]; baseline, equal to 20 mg/kg of NSAIAs once per day
  Blood glucose, Baseline: 16.7 ± 4 mmol/L
[4]; [10]
  Cholesterol (HDL), Baseline: 1.3 ± 0.1 mmol/L
  Cholesterol (total), Baseline: 7.3 ± 0.5 mmol/L
  Triglycerides, Baseline: 5.3 ± 0.5 mmol/L
[4]; [11]
  Cholesterol (HDL), Average: 1.3 ± 0.2 mmol/L
  Cholesterol (total), Average: 4.7 ± 0.4 mmol/L
  Triglycerides, Average: 2.3 ± 0.2 mmol/L
[5]; average second to fifth week, no fasting, equal to 20 mg/kg of NSAIAs every day for 5 weeks
  Blood glucose, Diabetic rats, Average: 7.5 ± 2 mmol/L
[5]; [10]
  Blood glucose, Diabetic rats, Baseline: 16.1 ± 4 mmol/L
[6]; [10]
  Cholesterol (HDL), Baseline: 1.5 ± 0.1 mmol/L
  Cholesterol (total), Baseline: 7.5 ± 0.4 mmol/L
  Triglycerides, Baseline: 5.5 ± 0.5 mmol/L
[6]; [12]
  Cholesterol (HDL), Average: 1.4 ± 0.2 mmol/L
  Cholesterol (total), Average: 4.9 ± 0.4 mmol/L
  Triglycerides, Average: 1.8 ± 0.2 mmol/L
[7]; average fourth to seventh week, no fasting, equal to 30 mg/kg of NSAIAs once per day for 7 weeks
  Blood glucose, Average: 9.5 ± 2 mmol/L
[7]; baseline, equal to 30 mg/kg of NSAIAs
  Blood glucose, Baseline: 27.7 ± 4 mmol/L
Normal rats [8]; normal rats (second Average line of Table 24), average second to fifth week, equal to 20 mg/kg of NSAIAs once per day
  Blood glucose, Average: 6.5 ± 1 mmol/L
Normal rats [8]; normal rats (second Baseline line of Table 24), baseline, equal to 20 mg/kg of NSAIAs
  Blood glucose, Baseline: 6.8 ± 1 mmol/L
Normal rats [9]; average second to fifth week, equal to 20 mg/kg of NSAIAs every day
  Blood glucose, Normal rats, Average: 6.4 ± 1 mmol/L
Normal rats [9]; [10]
  Blood glucose, Normal rats, Baseline: 6.5 ± 1 mmol/L

## CN1C(C(=O)Nc2ccccn2)=C(O)c2ccccc2S1(=O)=O [Piroxicam, piroxicam]
[1]
  t, time to peak plasma level after parent compound: 2 to 4 h
  Peak plasma concentration after parent compound: 0.1 mg/L
Human skin tissue
  In vitro penetration rate (apparent flux), parent compounds: <1 μg/cm^2/h
In vivo
  LD50: 360 mg/kg
[2]
  solubility: < 100 µg/mL

## CC(C(=O)O)c1ccc2c(c1)Cc1cccnc1O2 (centres unmarked) [Pranoprofen, pranoprofen]
[1]
  t, time to peak plasma level after parent compound: 2 to 4 h
  Peak plasma concentration after parent compound: 10 mg/L
Human skin tissue
  In vitro penetration rate (apparent flux), parent compounds: 30 μg/cm^2/h
In vivo
  LD50: 450 mg/kg
[2]
  solubility: 200 µg/mL (≈ 783 µM)

## Cc1ccc(C(=O)c2ccc(CC(=O)O)n2C)cc1 [Tolmetin, tolmetin]
[1]
  t, time to peak plasma level after parent compound: 1 to 2 h
  Peak plasma concentration after parent compound: 0.1 mg/L
Human skin tissue
  In vitro penetration rate (apparent flux), parent compounds: 10 μg/cm^2/h
In vivo
  LD50: 350 mg/kg
[2]
  solubility: 200 µg/mL (≈ 777 µM)

## Cc1cc(CC(=O)O)n(C)c1C(=O)c1ccc(Cl)cc1 [Zomepirac, zomepirac]
[1]
  t, time to peak plasma level after parent compound: 1 to 2 h
  Peak plasma concentration after parent compound: 0.1 mg/L
Human skin tissue
  In vitro penetration rate (apparent flux), parent compounds: 10 μg/cm^2/h
In vivo
  LD50: 27 mg/kg
[2]
  solubility: 200 µg/mL (≈ 686 µM)
